The values below come from patent US5214165A, “Compounds useful as intermediates in the synthesis of shikimic acid derivatives” (Imperial Chemical Industries PLC, priority 1989, dated 1993).

≈ marks a conversion by molar mass, not a printed value. Like-named read-outs stand apart in the source and are kept apart here.

Assay [1] has as its system E. coli K12. Description: interaction with sulphamethoxazole, chequerboard titration. It is filed as cell-based. Here is the method: (§1) 3) The interaction of 6-fluoroshikimate (racemic mixture) with a representative sulphonamide (sulphamethoxazole) was tested using both a disc approximation method and chequerboard titration.
The test system of assay [2] is Klebsiella pneumoniae. Description: interaction with sulphamethoxazole, disc approximation method. The class given is cell-based. Here is the method: as §1
The test system of assay [3] is E. coli K12. Described as above. It is filed as cell-based. Here is the method: as §1
The subject of assay [4] is Enterobacter cloacae. The description is as above. It is filed as cell-based. On the procedure: as §1
The subject of assay [5] is carrot cells. Description: standard carrot cell test for herbicidal activity. It is filed as cell-based. The note with it: carrot cells in liquid culture, shake flasks, 25° C. Here is the method: 5) In a standard test for herbicidal activity carrot cells were grown in shake flasks at 25° C. in liquid culture (Murashige and Skoog media with 0.2 mg/liter of kinetin and 0.1 mg/liter of 2.4 dichlorophenoxyacetic acid). The growth of cells was measured and an IC50 value obtained for compounds which were added in water.

For another assay, the system named is Serratia marcescens. Description: test compound in agar method, MIC. The class given is cell-based. The following applies: glucose agar, 16 hours at 37° C., read-out: MIC (minimum inhibitory concentration). On the procedure: (§2) 1) Antimicrobial activity was assessed in vitro using a disc diffusion method and a method wherein the test compound was in agar. Both methods employed the use of Davis and Mingioli (J. Bact (1950) 60 17-28) glucose agar.
(§3) ii) The "test compound in agar" method studied 6-α-fluoroshikimate at various final concentration in the agar (i.e. between 0 and 500 μg/ml) to obtain MIC (minimum inhibitory concentration) values for nine different bacterial cultures. Cultures were grown in Davis and Mingioli broth for 16 hours at 37° C. and diluted in fresh Davis and Mingioli broth to give 10^6 cells/ml. 1 μl volume of each culture was applied to the surface of each agar plate containing 6-α-fluoroshikimate and the plates were then incubated for 16 hours at 37° C. before each inoculation spot was visually assessed for growth. Using this technique the following results were observed: […]

The test system of assay [6] is Klebsiella pneumoniae. Nature of the assay: test compound in agar method, MIC. The note with it: glucose agar, 16 hours at 37° C., read-out: MIC (minimum inhibitory concentration). The class given is cell-based. Here is the method: as §2, §3
In a further assay the test system is E. coli. N99. Nature of the assay: test compound in agar method, MIC. The class given is cell-based. The following applies: Escherichia coli, glucose agar, 16 hours at 37° C., read-out: MIC (minimum inhibitory concentration). Here is the method:
as §2, §3

For another assay, the system named is Bacillus licheniformis. Description: test compound in agar method, MIC. The note with it: glucose agar, 16 hours at 37° C., read-out: MIC (minimum inhibitory concentration). It is filed as cell-based. Here is the method:
as §2, §3

Assay [7] relates to Pseudomonas aeruginosa 799/wt. Nature of the assay: test compound in agar method, MIC. The class given is cell-based. The following applies: glucose agar, 16 hours at 37° C., read-out: MIC (minimum inhibitory concentration). On the procedure: as §2, §3
The test system of assay [8] is Enterobacter cloacae. Nature of the assay: test compound in agar method, MIC. The class given is cell-based. The following applies: glucose agar, 16 hours at 37° C., read-out: MIC (minimum inhibitory concentration). On the procedure: as §2, §3
The next assay deals with E. coli. B. Nature of the assay: test compound in agar method, MIC. It is filed as cell-based. The note with it: Escherichia coli, glucose agar, 16 hours at 37° C., read-out: MIC (minimum inhibitory concentration). On the procedure: as §2, §3
In another assay the test system is Bacillus subtilis. Description: test compound in agar method, MIC. The note with it: glucose agar, 16 hours at 37° C., read-out: MIC (minimum inhibitory concentration). The class given is cell-based. On the procedure: as §2, §3
Assay [9] deals with Klebsiella pneumoniae ATCC 25304. Nature of the assay: test compound in agar method, MIC. The class given is cell-based. The note with it: ATCC25304, glucose agar, 16 hours at 37° C., read-out: MIC (minimum inhibitory concentration). Here is the method:
as §2, §3

For another assay, the system named is S. dublin 369001. Description: mouse protection test. The class given is in vivo. Set-up: unit not given beside the values. The note with it: mice.
For assay [10], the system named is E. coli N99. Description: disc diffusion antibacterial activity, zones of inhibition. It is filed as cell-based. The following applies: Escherichia coli; for zone of inhibition at 1.5 µg/disc: 1.5 μg applied on to disc. Here is the method:
as §2
i) The disc diffusion method used an overnight culture of E. coli N99 in Davis and Mingioli broth as an ioculum for the agar (e.g. 500 μl/100 ml agar). Test compounds were dissolved in distilled water and placed on to a 6 mm diameter disc which had just been applied to the agar surface. The plates were then incubated for 16 hours at 37° C. Using this method the following zones of inhibition were observed.
Background: A growth-free zone around the sample is the usual read-out of agar diffusion tests.

For the next assay, the system named is E. coli 341094. Description: mouse protection test. It is filed as in vivo. More on the design: unit not given beside the values. The note with it: mice.
In the next assay the test system is S. aureus 601055. Nature of the assay: mouse protection test. The class given is in vivo. Set-up: unit not given beside the values. The note with it: mice.
The subject of assay [11] is E. coli N99. Nature of the assay: mouse protection test. It is filed as in vivo. The following applies: mice. More on the design: unit not given beside the values. On the procedure: 4) The in vivo efficacy of the fluoroshikimate was determined by the use of a mouse protection test. Male mice (18-20 g) were inoculated intraperitoneally with ten times the previously determined LD50 for E. coli N99 in 0.4 ml of hog gastric mucin (12%). Immediately after infection the mice were dosed with 0.2 ml of test compound either subcutaneously, per os or intraperitoneally. Based on the number of survivors at day 4 post infection, PD50 values were calculated by LOGIT analysis.

The test system of assay [12] is E. coli N99. Nature of the assay: reversal studies of growth inhibition by 6α-fluoroshikimate. It is filed as cell-based. The note with it: in presence of 6α-fluoroshikimate; for Effect on the E. coli N99 inhibited growth: agent (each) at 100.0 μg/ml final well concentration, result in words. Here is the method: 2) Reversal studies were performed by adding agents to an E. coli N99 (Davis and Mingioli broth) 10^6 cells/ml. suspension in the presence of 6α-fluoroshikimate and the bacterial growth assessed by the use of a spectrophotometer (Absorbance 540 nm)
Inhibition of bacterial growth was reversed by paraaminobenzoic acid (PABP) but degrees of counter reversion were seen after the addition of aromatic amino acid types. Using this technique the following results were observed: […]

The test system of assay [13] is carrot cells. The note with it: well-known herbicide, in words; cited from earlier work.
The mark [14] stands for this setting: 16 hours at 37° C. (α: hazy zone), read-out: mm diameter zones of inhibition vs. E. coli N99.

With `O=C(O)C1=CC(O)C(O)C(O)C1F` (racemic) [6-fluoroshikimate (racemic mixture)], the “synergistic interaction with sulphamethoxazole” value with E. coli K12 [1] is “synergistic interaction was confirmed”; with Klebsiella pneumoniae [2], “synergistic interaction”; in the assay with E. coli K12 [3] it was “synergistic interaction”; in the assay with Enterobacter cloacae [4] it was “synergistic interaction”. Besides, in the assay on carrot cells [5], the “IC50 (growth of carrot cells)” value is reported as 1.5 μ/ml.

Turning to `O=C(O)C1=C[C@@H](O)[C@@H](O)[C@H](O)[C@H]1F` [6-α-fluoroshikimate, (3R,4R,5S,6S)6-α-Fluoroshikimic acid], the MIC in the assay on Serratia marcescens was greater than 500 µg/mL; with Klebsiella pneumoniae [6] it was 5 µg/mL (≈ 26 µM); in the assay on E. coli. N99, 0.1 µg/mL (≈ 0.52 µM); in the assay on Bacillus licheniformis it was greater than 500 µg/mL; in [7], greater than 500 µg/mL; with Enterobacter cloacae [8], 50 µg/mL (≈ 260 µM). In addition, the MIC in the assay with E. coli. B came to 1 µg/mL (≈ 5.2 µM); in the assay with Bacillus subtilis, 50 µg/mL (≈ 260 µM); in assay [9], 1 µg/mL (≈ 5.2 µM). Moreover, the “PD50 (day 4)” value with S. dublin 369001 (per os) was found to be 50; in the assay on S. dublin 369001 (subcutaneous), 20; in the assay on E. coli 341094 (per os) it was 13.4; in the assay with E. coli 341094 (subcutaneous), 23.2; in the assay with S. aureus 601055 (per os) it was 20; with S. aureus 601055 (subcutaneous), 20. In addition, the “PD50 (day 4)” value in the assay with E. coli N99 [11] (intraperitoneal) is greater than 10; in the assay on E. coli N99 [11] (per os), 8.6; in the assay with E. coli N99 [11] (subcutaneous), 4.6. Also, in the assay on E. coli N99 [10] (0.025 μg applied on to disc, 16 hours at 37° C., read-out: mm diameter zones of inhibition vs. E. coli N99), the zone of inhibition at 0.025 µg/disc was found to be 0 mm. Moreover, in the assay on E. coli N99 [10] (0.05 μg applied on to disc, 16 hours at 37° C., hazy, read-out: mm diameter zones of inhibition vs. E. coli N99), the zone of inhibition at 0.05 µg/disc is 10 mm. For the same compound, the zone of inhibition at 1.5 µg/disc in the assay on E. coli N99 [10] (setting [14]) worked out at 29 mm; with E. coli N99 [10] (16 hours at 37° C., inner clear, read-out: mm diameter zones of inhibition vs. E. coli N99, inner clear zone), 23 mm.

As to `O=C(O)C1=C[C@@H](O)[C@@H](O)[C@H](O)[C@@H]1F` [6-β-fluoroshikimate, (3R,4R,5S,6R)6-β-Fluoroshikimic acid], the zone of inhibition at 1.5 µg/disc in the assay on E. coli N99 [10] (setting [14]) stood at 0 mm. The zone of inhibition at 3 µg/disc in the assay with E. coli N99 [10] (3.0 μg applied on to disc, 16 hours at 37° C., very hazy, read-out: mm diameter zones of inhibition vs. E. coli N99) is 13 mm. The zone of inhibition at 30 µg/disc in the assay on E. coli N99 [10] (30.0 μg applied on to disc, 16 hours at 37° C., very hazy, read-out: mm diameter zones of inhibition vs. E. coli N99) was 26 mm.

For `N[C@@H](Cc1ccccc1)C(=O)O` [L-Phenyl alanine], the “Effect on the E. coli N99 inhibited growth” value in the assay on E. coli N99 [12] is on record as “No reversion”.

As to `N[C@@H](Cc1c[nH]c2ccccc12)C(=O)O` [L-tryptophan], the “Effect on the E. coli N99 inhibited growth” value in the assay with E. coli N99 [12] is listed as “No reversion”.

For the compound `N[C@@H](Cc1ccc(O)cc1)C(=O)O` [L-tyrosine], the “Effect on the E. coli N99 inhibited growth” value with E. coli N99 [12] is “No reversion”.

`Nc1ccc(C(=O)O)cc1` [PABA, paraaminobenzoic acid]: in the assay with E. coli N99 [12] (Absorbance 540 nm), the “Inhibition of bacterial growth reversed” value was “reversed”.

Consider `O=C(O)CNCP(=O)(O)O` [glyphosate], for which the “activity in the standard carrot cell test” value in the assay with carrot cells [13] is “active”.
